Results reported in patent US20070275961A1, “Triazolo ' 1, 5-A ! Pyrimidines and Their Use in Medicine” (VERNALIS (CAMBRIDGE) LIMITED., priority 2003, published 2007).

Experiments:
Format in all cases: biochemical
[1] = biological target: CDK2 enzyme, complexed with cyclin A (Homo sapiens, UniProt P24941); assay: CDK2 cyclin dependent kinase assay, phosphorylation of synthetic peptide […] (33P-ATP filtration); details: Table 2; 0.1 mM ATP
Protocol: (§1) The assay mixture containing the inhibitor and CDK2 enzyme, complexed with cyclin A (0.4 U/ml) was mixed together in a microtiter plate in a final volume of 50 μl and incubated for 40 min at 30° C. The assay mixture contained 0.1 mM unlabeled ATP, 0.01 μCi/μl ^33P-γ-ATP, 0.03 mM peptide, 0.1 mg/ml BSA, 7.5 mM magnesium acetate, 50 mM HEPES-NaOH, pH 7.5. The reaction was stopped by adding 50 μl of 50 mM phosphoric acid. 90 μl of the mixture were transferred to a pre-wetted 96-well Multiscreen MAPHNOB filtration plate (Millipore) and filtered on a vacuum manifold. The filter plate was washed with three successive additions of 200 μl 50 mM phosphoric acid and then with 100 μl methanol. The filtration plate was dried for 10 min at 65° C., scintillant added and phosphorylated peptide quantified in a scintillation counter (Trilux, PerkinElmer).
HEPES is N-[2-hydroxyethyl]piperazine-N′-[2-ethanesulfonic acid]. BSA is bovine serum albumin.

[2] = biological target: T1, Chk1 (Homo sapiens, UniProt O14757); assay: Chk1 kinase assay, phosphorylation of Chktide (33P-ATP filtration); details: Table 2; 0.01 mM ATP; read-out: Chk1 IC50
T1 sequence (O14757 1-476): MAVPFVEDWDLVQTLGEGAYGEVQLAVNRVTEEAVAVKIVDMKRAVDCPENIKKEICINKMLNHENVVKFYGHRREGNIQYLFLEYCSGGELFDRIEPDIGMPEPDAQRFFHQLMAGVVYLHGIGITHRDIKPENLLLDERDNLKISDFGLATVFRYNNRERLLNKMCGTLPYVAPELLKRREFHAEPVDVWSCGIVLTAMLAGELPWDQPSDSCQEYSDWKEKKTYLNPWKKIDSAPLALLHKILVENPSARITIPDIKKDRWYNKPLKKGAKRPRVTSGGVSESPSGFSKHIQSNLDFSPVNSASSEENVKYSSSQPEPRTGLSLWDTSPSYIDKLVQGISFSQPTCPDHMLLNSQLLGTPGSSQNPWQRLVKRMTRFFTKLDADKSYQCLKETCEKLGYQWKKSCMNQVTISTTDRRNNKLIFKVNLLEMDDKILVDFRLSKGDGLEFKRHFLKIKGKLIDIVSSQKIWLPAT
Protocol: Assays for the Chk1 kinase activity were carried out by monitoring the phosphorylation of a synthetic peptide Chktide with the amino acid sequence, […]. The assay mixture containing the inhibitor and Chk1 enzyme was mixed together in a microtiter plate in a final volume of 50 μl and incubated for 40 minutes at 30° C.
The assay mixture contained 0.01 mM unlabeled ATP, 0.5 μCi ^33P-γ-ATP, 30 μM Chktide, 0.1 mg/ml BSA, 50 mM Hepes-NaOH pH 7.5 and 11 nM GST-Chk1 enzyme. The reaction was stopped by adding 50 μl of 50 mM phosphoric acid. 90 μl of the mixture was transferred to a pre-wetted 96-well Multiscreen MAPHNOB filtration plate (Millipore) and filtered on a vacuum manifold. The filter plate was washed with three successive additions of 200 μl 50 mM phosphoric acid and then with 100 μl methanol. The filtration plate was dried for 10 min at 65° C., scintillant added and phosphorylated peptide quantified in a scintillation counter (Trilux, PerkinElmer).

[3] = biological target: T2, PDK1 enzyme (Homo sapiens, UniProt O15530); assay: PDK1 3'-phosphoinositide-dependent kinase assay, phosphorylation of synthetic peptide (33P-ATP filtration); details: Table 2; 0.01 mM ATP; read-out: PDK1 IC50
T2 sequence (O15530 1-556): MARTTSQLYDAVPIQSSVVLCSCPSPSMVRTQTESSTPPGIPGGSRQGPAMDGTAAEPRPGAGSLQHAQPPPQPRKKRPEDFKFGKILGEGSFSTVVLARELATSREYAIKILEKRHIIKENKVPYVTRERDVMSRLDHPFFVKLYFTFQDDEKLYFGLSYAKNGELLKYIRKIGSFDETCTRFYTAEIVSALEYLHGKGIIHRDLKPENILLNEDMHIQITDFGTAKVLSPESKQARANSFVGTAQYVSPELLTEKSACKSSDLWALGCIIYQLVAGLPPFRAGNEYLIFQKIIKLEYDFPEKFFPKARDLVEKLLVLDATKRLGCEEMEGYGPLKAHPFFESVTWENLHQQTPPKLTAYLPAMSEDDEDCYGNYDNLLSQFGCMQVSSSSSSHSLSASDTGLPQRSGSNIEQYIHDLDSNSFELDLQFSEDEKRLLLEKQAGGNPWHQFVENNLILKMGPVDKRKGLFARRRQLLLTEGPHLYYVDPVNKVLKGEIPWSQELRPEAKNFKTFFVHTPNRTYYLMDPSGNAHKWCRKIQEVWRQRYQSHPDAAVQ
Protocol: as §1, with “and PDK1 enzyme” for “and CDK2 enzyme, complexed with cyclin A (0.4 U/ml)”, “for 60” for “for 40”, “contained 0.01” for “contained 0.1”, “^33P-γ-ATP, 0.075” for “^33P-γ-ATP, 0.03”, “acetate, 0.05 M Tris.HCl,” for “acetate, 50 mM HEPES-NaOH,”, “pH 7.5, 0.5% 2-mercaptoethanol.” for “pH 7.5.”

Row | Structure (SMILES) | IC50 [1] | IC50 [2] | IC50 [3]
1 | O=S(=O)(c1ccc(Nc2cc(Cl)nc3ncnn23)cc1)C(F)(F)F [Example 64] | 155 µM | > 200 µM | > 200 µM
2 | NS(=O)(=O)c1ccc(Nc2cc(N[C@H]3CC[C@H](O)CC3)nc3ncnn23)cc1 [Example 68] | 7.4 µM | > 200 µM | > 200 µM
3 | CN(C)CCN(C)c1cc(Nc2ccc(S(C)(=O)=O)cc2)n2ncnc2n1 [Example 73] | 22.5 µM | > 200 µM | > 200 µM
4 | CCCc1cc(Nc2ccc(S(C)(=O)=O)cc2)n2ncnc2n1 [Example 74] | 14.2 µM | > 200 µM | > 200 µM
5 | Clc1cc(Nc2ccccc2)n2ncnc2n1 [Example 75] | 62.8 µM | > 200 µM | > 200 µM
6 | CC(C)(C)OC(=O)N1CCC(CNc2cc(Cl)nc3ncnn23)CC1 [Example 76] | > 200 µM | > 200 µM | > 200 µM
7 | Cc1cc(Nc2ccc(S(C)(=O)=O)cc2)n2ncnc2n1 [Example 77] | 124 µM | > 200 µM | > 200 µM
8 | CC(C)c1cc(Nc2ccc(S(C)(=O)=O)cc2)n2ncnc2n1 [Example 78] | 7.42 µM | > 200 µM | > 200 µM
9 | CCNc1cc(Nc2ccc(S(C)(=O)=O)cc2)n2ncnc2n1 [Example 80] | 13.5 µM | > 200 µM | > 200 µM
10 | Clc1cc(NCC2CCNCC2)n2ncnc2n1 [Example 81] | 177 µM | > 200 µM | > 200 µM
11 | CS(=O)(=O)c1ccc(Nc2cc(N3CCC(C(N)=O)CC3)nc3ncnn23)cc1 [Example 89] | 36 µM | > 200 µM | > 200 µM
12 | COc1cc(Nc2cc(Cl)nc3ncnn23)c(Cl)cc1C(=O)O [Example 90] | 102 µM | > 200 µM | > 200 µM
13 | CS(=O)(=O)c1ccc(CNc2cc(Cl)nc3ncnn23)cc1 [Example 95] | 76.2 µM | > 200 µM | > 200 µM
14 | CS(=O)(=O)c1ccc(Nc2cc(N)nc3ncnn23)cc1 [Example 97] | 20.3 µM | > 200 µM | > 200 µM
15 | CS(=O)(=O)c1ccc(Nc2cc(NCC34CC5CC(CC(C5)C3)C4)nc3ncnn23)cc1 [Example 99] | 25.7 µM | > 200 µM | > 200 µM
16 | CS(=O)(=O)c1ccc(Nc2cc(NC3CC3)nc3ncnn23)cc1 [Example 101] | 15.1 µM | > 200 µM | > 200 µM
17 | CS(=O)(=O)c1ccc(Nc2cc(NC3C4CC5CC(C4)CC3C5)nc3ncnn23)cc1 (stereo not drawn) [Example 102] | 10.9 µM | 59.4 µM | 3.55 µM
18 | CCN(CC)c1cc(NCc2ccc(S(C)(=O)=O)cc2)n2ncnc2n1 [Example 103] | 29.8 µM | > 200 µM | > 200 µM

Compounds with a lower IC50 [1], results first:

Row | IC50 [1] | IC50 [2] | IC50 [3] | Structure (SMILES)
19 | 0.94 µM | > 200 µM | > 200 µM | CCN(CC)c1cc(Nc2ccc(S(C)(=O)=O)cc2)n2ncnc2n1 [Example 65]
20 | 4.19 µM | > 200 µM | > 200 µM | CNc1cc(Nc2ccc(S(N)(=O)=O)cc2)n2ncnc2n1 [Example 66]
21 | 2.3 µM | > 200 µM | > 200 µM | NS(=O)(=O)c1ccc(Nc2cc(N3CCCC(O)C3)nc3ncnn23)cc1 (stereo not drawn) [Example 67]
22 | 1.82 µM | > 200 µM | > 200 µM | CC[C@H](CO)Nc1cc(Nc2ccc(S(C)(=O)=O)cc2)n2ncnc2n1 [Example 69]
23 | 2.69 µM | > 200 µM | > 200 µM | CCN(CC)c1cc(Nc2ccc(S(=O)(=O)C(F)(F)F)cc2)n2ncnc2n1 [Example 70]
24 | 0.59 µM | > 200 µM | > 200 µM | CCN(CC)c1cc(Nc2ccc(S(=O)(=O)N(C)C)cc2)n2ncnc2n1 [Example 71]
25 | 0.38 µM | > 200 µM | > 200 µM | CCN(CC)c1cc(Nc2ccc(S(=O)(=O)N3CCC(O)CC3)cc2)n2ncnc2n1 [Example 72]
26 | 5.05 µM | > 200 µM | > 200 µM | CC[C@H](CO)Nc1cc(NCc2ccccc2)n2ncnc2n1 [Example 79]
27 | 4.66 µM | > 200 µM | > 200 µM | CCN(CC)c1cc(Nc2ccccc2)n2ncnc2n1 [Example 82]
28 | 0.27 µM | 93.4 µM | 43.3 µM | CN(C)S(=O)(=O)c1ccc(Nc2cc(N[C@H]3CC[C@H](N)CC3)nc3ncnn23)cc1 [Example 83]
29 | 0.25 µM | > 200 µM | 107 µM | CS(=O)(=O)c1ccc(Nc2cc(N[C@H]3CC[C@H](N)CC3)nc3ncnn23)cc1 [Example 84]
30 | 0.86 µM | > 200 µM | 2.89 µM | CCN(c1cc(Nc2ccc(S(C)(=O)=O)cc2)n2ncnc2n1)C(C)C [Example 85]
31 | 1.49 µM | > 200 µM | > 200 µM | CC(C)N(CCO)c1cc(Nc2ccc(S(C)(=O)=O)cc2)n2ncnc2n1 [Example 87]
32 | 5.98 µM | 11.9 µM | > 200 µM | O=S(=O)(c1ccccc1)c1ccc(Nc2cc(Cl)nc3ncnn23)cc1 [Example 88]
33 | 4.83 µM | 14.2 µM | > 200 µM | CN(C)c1ccc(Nc2cc(Nc3ccc(S(C)(=O)=O)cc3)n3ncnc3n2)cc1 [Example 91]
34 | 1.49 µM | > 200 µM | > 200 µM | CCN(CC)c1cc(Nc2ccc(C(N)=O)cc2)n2ncnc2n1 [Example 92]
35 | 0.67 µM | > 200 µM | > 200 µM | CCN(CC)c1cc(Nc2ccc(S(=O)(=O)c3ccccc3)cc2)n2ncnc2n1 [Example 93]
36 | 1.53 µM | > 200 µM | > 200 µM | CC(C)(C)CNc1cc(Nc2ccc(S(C)(=O)=O)cc2)n2ncnc2n1 [Example 94]
37 | 2.23 µM | > 200 µM | > 200 µM | CS(=O)(=O)c1ccc(Nc2cc(NC3CCCC3)nc3ncnn23)cc1 [Example 96]
38 | 0.26 µM | 2.19 µM | 14.2 µM | N[C@H]1CC[C@H](Nc2cc(Nc3ccc(S(=O)(=O)c4ccccc4)cc3)n3ncnc3n2)CC1 [Example 98]
39 | 2.95 µM | > 200 µM | > 200 µM | CS(=O)(=O)c1ccc(CNc2cc(N[C@H]3CC[C@H](N)CC3)nc3ncnn23)cc1 [Example 100]
